{
  "source": "patent US20130053372A1",
  "about": "“5-HT RECEPTOR MODULATORS” (Cambridge Enterprise Limited, priority 2010, published 2013)",
  "key": {"[1]": {"target": "T1, rat r5-HT1B receptors (Rattus norvegicus, UniProt P28564)", "T1 construct": "from tissue", "test": "Binding affinity at rat r5-HT1B receptors, rat cerebral cortex membrane binding (RBA)", "settings": "value in parentheses; monohydrochloride salt", "experimental": "Binding Protocol for Determination of Affinity at rat r5-HT 1B Receptors (RBA)\nThis binding affinity protocol was performed according to standard conditions disclosed in Eur. J. Pharmacol. 1985, 118, 1-12."}, "[2]": {"system": "chronically hypoxic murine model of pulmonary arterial hypertension (PAH)", "test": "Effect on development of hypoxia-induced pulmonary hypertension (haemodynamics, right ventricular hypertrophy)", "format": "in vivo, Mice (C57B/6J)", "settings": "mice", "experimental": "Protocol for the Determination of the Effect on the Development of Hypoxia-Induced Pulmonary Hypertension.\nMice (C57B/6J, male, 2 months) were exposed to 14 days of hypobaric hypoxia (equivalent to 10% O2) or normoxia, as described in MacLean, M. R. et al. Circulation 2008, 117, 2928-2937 and MacLean, M. R. et al. Circulation 2004,109, 2150-2155. Mice were dosed either with vehicle (dH2O) or 82 (15 mg/kg/day) for 14 days. Haemodynamic Measurements: Heart rate, right ventricular pressure and systemic arterial pressure were measured and analysed as described in MacLean, M. R. et al. Circulation 2008, 117, 2928-2937 and MacLean, M. R. et al. Circulation 2004,109, 2150-2155. Briefly, right ventricular pressure was measured via transdiaphragmatic right heart catheterisation and systemic arterial pressure was measured via cannulation of the left common carotid artery. Lung Histology: Sagittal sections of lung were elastica-Van Gieson stained and microscopically assessed for the muscularisation of pulmonary arteries (<80 μm external diameter) in a blinded fashion as described in MacLean, M. R. et al. Circulation 2008, 117, 2928-2937 and MacLean, M. R. et al. Circulation 2004,109, 2150-2155. Remodelled arteries were confirmed by the presence of a double elastic laminae.\n(§1) Lung sections from 5 mice for each group were studied. Approximately 150 arteries from each lung section (˜750 arteries in total for each group) were assessed. Right Ventricular Hypertrophy: Right ventricular hypertrophy (RVH) was assessed by weight measurement of the right ventricular free wall (RV) and left ventricle plus septum (LV+S). The ratio expressed is RV/LV+S. RVH measurements from 6 to 8 mice for each group were assessed. Myography: Small pulmonary arteries (PAs) of ˜350 μm internal diameter (i.d.) were set up on wire myographs as described in MacLean M. R. et al. J Pharmacol Exp Ther. 2005, 313, 539-548. Briefly, PAs from normoxic mice were set up at tensions equivalent to their mean in vivo right ventricular pressure (RVP) (12-15 mmHg), whereas PAs from hypoxic mice were set up at tensions equivalent to the elevated in vivo mean pressures observed after exposure to hypoxia (25-30 mmHg). After a 45-min equilibration period, the response to 50 mM KCl was determined. Cumulative response curves were constructed in the presence and absence of the antagonist which was allowed a 45-min equilibrium period before constructing the curves.\nThe effects of 82 on a chronically hypoxic murine model of pulmonary arterial hypertension (PAH) were assessed. Four small groups of n=3 or 4 were used. The results are illustrated in FIGS. 13-17 (see also description of figures, above)."}, "[3]": {"system": "intralobar pulmonary arteries from hypoxic mice", "test": "Myography of pulmonary arteries: vasoreactivity to 5-HT", "parameters": "species or system Mice (C57B/6J)", "settings": "15 mg/kg/day", "experimental": "as §1"}},
  "note": "Structures can show the parent of a compound that is named as a salt.",
  "data": [
    {"smiles": "CN1CCN(c2nc(N3CCN(c4ccccc4)C3=O)cc3ccoc23)CC1", "note": "[Example 82, 1-(7-(4-Methylpiperazin-1-yl)furo[2,3-c]pyridin-5-yl)-3-phenylimidazolidin-2-one hydrochloride]", "values": [
      {"measurement": "IC50", "setting": "[1]", "value": 110, "unit": "nM"},
      {"measurement": "effect on heart rate (HR)", "setting": "[2]; 15 mg/kg/day", "value": "no significant effect"},
      {"measurement": "effect on mean systemic arterial pressure (mSAP)", "setting": "[2]; 15 mg/kg/day", "value": "no significant effect"},
      {"measurement": "hypoxia-induced increases in systolic right ventricular pressure (sRVP)", "setting": "[2]; 15 mg/kg/day for 14 days, hypobaric hypoxia", "value": "significantly attenuated"},
      {"measurement": "hypoxia-induced right ventricular hypertrophy (RVH)", "setting": "[2]; 15 mg/kg/day for 14 days, hypobaric hypoxia, RV/LV+S", "value": "significantly attenuated"},
      {"measurement": "effect on the increase in contractility to 5HT in intralobar pulmonary arteries from hypoxic mice", "setting": "[3]", "value": "no effect"}
    ]}
  ]
}
